Results reported in patent publication US10231954B2, “Neurodegenerative therapies” (LYTIX BIOPHARMA AS, priority 2014, dated 2019).
Read-outs that look alike come from different tables or passages of the source.

Columns and labels:
Type in all cases: biochemical
[1] = target: T1, CHK1 (Homo sapiens, UniProt O14757); assay: Kinase profiling CHK1; settings: for remaining activity at 100 µM: read-out: residual kinase activity, CHK1
T1 sequence (O14757 1-476): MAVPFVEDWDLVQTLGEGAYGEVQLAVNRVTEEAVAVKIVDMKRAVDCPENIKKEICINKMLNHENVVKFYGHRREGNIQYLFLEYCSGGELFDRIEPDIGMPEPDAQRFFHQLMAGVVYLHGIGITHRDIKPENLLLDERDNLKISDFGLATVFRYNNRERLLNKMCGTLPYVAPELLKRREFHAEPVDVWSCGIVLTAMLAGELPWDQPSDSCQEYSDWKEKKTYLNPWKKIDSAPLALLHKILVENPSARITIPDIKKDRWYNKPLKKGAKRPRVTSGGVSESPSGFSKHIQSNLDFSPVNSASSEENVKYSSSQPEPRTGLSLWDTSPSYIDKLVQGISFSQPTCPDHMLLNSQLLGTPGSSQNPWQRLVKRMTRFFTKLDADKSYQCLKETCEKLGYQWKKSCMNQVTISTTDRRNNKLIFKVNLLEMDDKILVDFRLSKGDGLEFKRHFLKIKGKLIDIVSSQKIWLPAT
Excerpt: (§1) Any value less that 25 is considered to be highly significant inhibition.

[2] = target: CDK2-Cyclin A (Homo sapiens, UniProt P24941); assay: Kinase profiling CDK2-Cyclin A; settings: for remaining activity at 100 µM: read-out: residual kinase activity, CDK2-Cyclin A
Excerpt: as §1

[3] = target: T2, Aurora A (Homo sapiens, UniProt O14965); assay: Kinase profiling Aurora A; settings: for remaining activity at 100 µM: read-out: residual kinase activity, Aurora A
T2 sequence (O14965 1-403): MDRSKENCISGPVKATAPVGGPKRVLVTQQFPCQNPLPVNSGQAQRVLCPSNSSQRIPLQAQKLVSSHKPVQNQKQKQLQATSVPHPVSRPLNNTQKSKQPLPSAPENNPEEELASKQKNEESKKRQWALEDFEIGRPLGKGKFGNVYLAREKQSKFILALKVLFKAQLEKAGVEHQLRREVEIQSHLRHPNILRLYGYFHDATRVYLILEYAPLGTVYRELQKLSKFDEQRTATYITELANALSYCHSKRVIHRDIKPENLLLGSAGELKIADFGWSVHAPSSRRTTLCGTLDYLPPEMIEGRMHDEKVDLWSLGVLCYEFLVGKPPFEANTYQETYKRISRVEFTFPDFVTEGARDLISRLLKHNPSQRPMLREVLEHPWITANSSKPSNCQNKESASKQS
Excerpt: as §1

[4] = target: MARK1 (Homo sapiens, UniProt Q9P0L2); assay: Kinase profiling MARK1; settings: for remaining activity at 100 µM: read-out: residual kinase activity, MARK1
Excerpt: as §1

[5] = target: MELK (Homo sapiens, UniProt Q14680); assay: Kinase profiling MELK; settings: for remaining activity at 100 µM: read-out: residual kinase activity, MELK
Excerpt: as §1

[6] = target: T3, TSSK1 (Homo sapiens, UniProt Q9BXA7); assay: Kinase profiling TSSK1; settings: for remaining activity at 100 µM: read-out: residual kinase activity, TSSK1
T3 sequence (Q9BXA7 1-367): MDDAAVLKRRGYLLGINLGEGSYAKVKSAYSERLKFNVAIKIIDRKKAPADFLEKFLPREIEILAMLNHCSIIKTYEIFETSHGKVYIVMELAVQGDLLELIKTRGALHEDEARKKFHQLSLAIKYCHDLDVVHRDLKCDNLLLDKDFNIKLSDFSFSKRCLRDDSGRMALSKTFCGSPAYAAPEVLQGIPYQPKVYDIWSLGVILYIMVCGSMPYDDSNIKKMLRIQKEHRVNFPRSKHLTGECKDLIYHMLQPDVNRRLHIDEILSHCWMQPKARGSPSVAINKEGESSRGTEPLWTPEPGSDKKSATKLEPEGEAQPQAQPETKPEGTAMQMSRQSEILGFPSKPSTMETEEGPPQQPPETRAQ
Excerpt: as §1

[7] = target: T4, EIF2AK3 (Homo sapiens, UniProt Q9NZJ5); assay: Kinase profiling EIF2AK3; settings: for remaining activity at 100 µM: read-out: residual kinase activity, EIF2AK3
T4 sequence (Q9NZJ5 30-1116): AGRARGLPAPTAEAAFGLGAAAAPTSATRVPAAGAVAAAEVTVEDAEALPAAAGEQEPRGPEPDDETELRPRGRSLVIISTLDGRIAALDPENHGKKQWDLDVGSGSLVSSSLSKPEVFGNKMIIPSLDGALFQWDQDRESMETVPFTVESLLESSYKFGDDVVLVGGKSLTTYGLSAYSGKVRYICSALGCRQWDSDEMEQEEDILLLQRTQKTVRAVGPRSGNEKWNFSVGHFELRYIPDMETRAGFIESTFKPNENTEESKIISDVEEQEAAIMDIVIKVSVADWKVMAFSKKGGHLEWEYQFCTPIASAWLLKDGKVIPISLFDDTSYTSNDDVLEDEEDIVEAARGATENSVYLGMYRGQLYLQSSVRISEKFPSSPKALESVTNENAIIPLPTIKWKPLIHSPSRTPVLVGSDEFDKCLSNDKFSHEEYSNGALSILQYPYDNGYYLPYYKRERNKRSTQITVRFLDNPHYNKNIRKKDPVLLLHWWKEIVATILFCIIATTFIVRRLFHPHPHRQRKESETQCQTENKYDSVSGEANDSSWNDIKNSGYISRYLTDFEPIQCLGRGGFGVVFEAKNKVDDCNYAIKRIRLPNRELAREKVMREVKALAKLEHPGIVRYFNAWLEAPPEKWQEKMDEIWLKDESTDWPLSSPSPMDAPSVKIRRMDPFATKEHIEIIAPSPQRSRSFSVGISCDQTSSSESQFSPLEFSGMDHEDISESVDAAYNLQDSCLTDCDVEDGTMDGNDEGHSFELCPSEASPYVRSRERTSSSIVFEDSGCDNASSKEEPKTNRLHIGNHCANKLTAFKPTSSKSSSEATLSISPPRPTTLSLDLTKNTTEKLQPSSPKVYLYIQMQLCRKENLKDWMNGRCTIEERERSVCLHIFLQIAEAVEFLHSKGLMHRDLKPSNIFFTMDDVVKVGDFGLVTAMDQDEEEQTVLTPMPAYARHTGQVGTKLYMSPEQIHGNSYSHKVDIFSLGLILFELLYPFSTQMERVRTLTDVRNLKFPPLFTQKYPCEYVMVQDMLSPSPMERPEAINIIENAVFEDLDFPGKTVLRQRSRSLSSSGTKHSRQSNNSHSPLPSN
Excerpt: as §1

[8] = target: WNK1 (Homo sapiens, UniProt Q9H4A3); assay: Kinase profiling WNK1; settings: for remaining activity at 100 µM: read-out: residual kinase activity, WNK1
Excerpt: as §1

[9] = target: CSK (Homo sapiens, UniProt P41240); assay: Kinase profiling CSK; settings: for remaining activity at 100 µM: read-out: residual kinase activity, CSK
Excerpt: as §1

[10] = target: ABL (Homo sapiens, UniProt P00519); assay: Kinase profiling ABL; settings: for remaining activity at 100 µM: read-out: residual kinase activity, ABL
Excerpt: as §1

[11] = 100 micromolar inhibitor, 100 = no change
[12] = 100 micromolar inhibitor concentration, 100 is no change

Chain of CSK (P41240 whole entry, species assumed): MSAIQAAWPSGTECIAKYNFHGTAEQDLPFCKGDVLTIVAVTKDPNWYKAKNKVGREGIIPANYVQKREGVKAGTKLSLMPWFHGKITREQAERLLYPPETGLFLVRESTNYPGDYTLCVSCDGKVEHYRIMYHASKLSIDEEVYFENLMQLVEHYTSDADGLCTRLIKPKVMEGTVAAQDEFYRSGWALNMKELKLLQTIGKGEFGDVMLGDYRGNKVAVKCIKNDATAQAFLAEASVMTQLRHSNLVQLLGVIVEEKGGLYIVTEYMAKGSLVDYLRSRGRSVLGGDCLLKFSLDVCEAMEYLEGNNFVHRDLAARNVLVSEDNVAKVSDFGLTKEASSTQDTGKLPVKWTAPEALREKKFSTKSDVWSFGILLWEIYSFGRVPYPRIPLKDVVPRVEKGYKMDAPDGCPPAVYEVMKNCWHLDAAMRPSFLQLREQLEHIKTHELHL
Chain of ABL (P00519 whole entry, species assumed): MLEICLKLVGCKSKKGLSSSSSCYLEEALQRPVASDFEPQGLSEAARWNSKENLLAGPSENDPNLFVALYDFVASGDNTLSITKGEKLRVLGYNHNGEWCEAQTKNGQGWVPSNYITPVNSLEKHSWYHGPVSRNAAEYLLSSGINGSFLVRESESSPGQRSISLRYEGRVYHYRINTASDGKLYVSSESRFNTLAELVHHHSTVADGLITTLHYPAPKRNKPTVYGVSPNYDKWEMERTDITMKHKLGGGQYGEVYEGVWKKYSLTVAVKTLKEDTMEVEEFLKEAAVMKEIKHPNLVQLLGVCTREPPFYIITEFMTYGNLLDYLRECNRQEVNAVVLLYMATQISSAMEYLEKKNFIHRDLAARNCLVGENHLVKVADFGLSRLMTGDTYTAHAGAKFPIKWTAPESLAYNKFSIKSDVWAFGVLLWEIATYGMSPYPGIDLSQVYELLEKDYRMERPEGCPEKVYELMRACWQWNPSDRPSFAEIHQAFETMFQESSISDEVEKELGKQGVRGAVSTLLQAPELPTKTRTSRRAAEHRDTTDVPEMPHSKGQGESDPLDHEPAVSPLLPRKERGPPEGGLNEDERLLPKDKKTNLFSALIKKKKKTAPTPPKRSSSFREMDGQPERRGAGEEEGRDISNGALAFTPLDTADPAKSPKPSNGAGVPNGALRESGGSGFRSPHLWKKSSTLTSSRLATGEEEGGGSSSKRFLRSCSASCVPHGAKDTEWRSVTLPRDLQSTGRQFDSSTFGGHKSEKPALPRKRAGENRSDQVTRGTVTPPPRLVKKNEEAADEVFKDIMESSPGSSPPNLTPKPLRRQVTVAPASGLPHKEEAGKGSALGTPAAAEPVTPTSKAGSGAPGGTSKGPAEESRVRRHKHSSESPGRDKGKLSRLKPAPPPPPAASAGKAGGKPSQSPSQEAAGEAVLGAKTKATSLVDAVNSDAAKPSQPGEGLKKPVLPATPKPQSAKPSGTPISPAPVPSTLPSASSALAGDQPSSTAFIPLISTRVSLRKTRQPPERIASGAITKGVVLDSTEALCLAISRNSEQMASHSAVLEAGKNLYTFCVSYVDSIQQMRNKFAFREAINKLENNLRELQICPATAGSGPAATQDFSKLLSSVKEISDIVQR
Chain of MELK (Q14680 whole entry, species assumed): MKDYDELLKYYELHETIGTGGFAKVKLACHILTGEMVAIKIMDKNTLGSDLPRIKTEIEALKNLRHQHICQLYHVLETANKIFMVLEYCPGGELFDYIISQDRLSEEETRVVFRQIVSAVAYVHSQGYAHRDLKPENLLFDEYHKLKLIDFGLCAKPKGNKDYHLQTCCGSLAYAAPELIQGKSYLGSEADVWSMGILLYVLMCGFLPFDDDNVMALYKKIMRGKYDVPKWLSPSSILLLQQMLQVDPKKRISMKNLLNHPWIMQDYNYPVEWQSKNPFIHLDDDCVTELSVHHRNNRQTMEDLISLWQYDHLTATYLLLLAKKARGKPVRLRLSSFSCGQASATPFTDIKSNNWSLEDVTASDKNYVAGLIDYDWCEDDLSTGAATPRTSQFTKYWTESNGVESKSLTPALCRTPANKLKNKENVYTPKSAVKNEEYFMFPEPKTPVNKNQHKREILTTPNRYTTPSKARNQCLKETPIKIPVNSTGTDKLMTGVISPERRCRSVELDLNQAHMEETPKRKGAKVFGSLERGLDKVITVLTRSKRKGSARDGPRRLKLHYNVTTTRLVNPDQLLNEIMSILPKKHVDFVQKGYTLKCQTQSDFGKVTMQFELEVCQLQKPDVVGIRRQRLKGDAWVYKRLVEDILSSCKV
Chain of MARK1 (Q9P0L2 whole entry, species assumed): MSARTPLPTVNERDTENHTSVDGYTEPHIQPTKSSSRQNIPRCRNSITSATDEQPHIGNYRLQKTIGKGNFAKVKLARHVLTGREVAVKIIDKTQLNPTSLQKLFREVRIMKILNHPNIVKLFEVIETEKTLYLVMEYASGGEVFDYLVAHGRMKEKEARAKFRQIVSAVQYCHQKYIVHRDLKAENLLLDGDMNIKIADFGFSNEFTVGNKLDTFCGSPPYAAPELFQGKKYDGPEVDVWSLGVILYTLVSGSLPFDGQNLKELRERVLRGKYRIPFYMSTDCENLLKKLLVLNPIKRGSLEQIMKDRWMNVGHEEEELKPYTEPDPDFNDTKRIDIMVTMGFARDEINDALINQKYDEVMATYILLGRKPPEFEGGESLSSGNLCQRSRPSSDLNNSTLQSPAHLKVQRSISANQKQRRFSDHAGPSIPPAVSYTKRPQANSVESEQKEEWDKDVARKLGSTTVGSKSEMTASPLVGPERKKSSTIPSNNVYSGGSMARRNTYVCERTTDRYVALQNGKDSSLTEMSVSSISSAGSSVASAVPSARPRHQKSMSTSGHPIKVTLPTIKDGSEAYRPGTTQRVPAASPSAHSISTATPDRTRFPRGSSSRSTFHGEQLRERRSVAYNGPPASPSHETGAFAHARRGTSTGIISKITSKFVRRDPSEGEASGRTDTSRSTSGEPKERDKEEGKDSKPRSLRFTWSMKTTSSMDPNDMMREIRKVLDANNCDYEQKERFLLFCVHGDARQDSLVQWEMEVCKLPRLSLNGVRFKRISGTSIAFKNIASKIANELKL

| SMILES | residual kinase activity, CHK1 [1, 12] | residual kinase activity, CDK2-Cyclin A [2, 12] | residual kinase activity, Aurora A [3, 12] | residual kinase activity, MARK1 [4, 12] | residual kinase activity, MELK [5, 12] | residual kinase activity, TSSK1 [6, 12] | residual kinase activity, EIF2AK3 [7, 12] | residual kinase activity, WNK1 [8, 12] | residual kinase activity, CSK [9, 12] | residual kinase activity, ABL [10, 12] | also measured |
| --- | --- | --- | --- | --- | --- | --- | --- | --- | --- | --- | --- |
| CC(=O)Nc1cccc(NC(=O)c2nc3ccc(O)cc3s2)c1 [Compound 03-07, N-(3-acetamidophenyl)-6-hydroxybenzo[d]thiazole-2-carboxamide] | – | – | – | – | – | – | – | – | – | – | remaining activity at 100 µM [1, 11]: 113%; remaining activity at 100 µM [2, 11]: 99%; remaining activity at 100 µM [3, 11]: 110%; remaining activity at 100 µM [4, 11]: 106%; remaining activity at 100 µM [5, 11]: 12%; remaining activity at 100 µM [6, 11]: 57%; remaining activity at 100 µM [7, 11]: 69%; remaining activity at 100 µM [8, 11]: 115%; remaining activity at 100 µM [9, 11]: 105%; remaining activity at 100 µM [10, 11]: 105% |
| O=C(Nc1nc2cc(O)ccc2s1)c1ccccn1 [Compound 03-13] | 88 | 91 | 93 | 99 | 22 | 95 | 89 | 100 | 95 | 71 | – |
| O=C(Nc1nc2ccc(O)cc2s1)c1ccccn1 [Compound 03-12] | 90 | 87 | 95 | 89 | 31 | 66 | 73 | 91 | 101 | 113 | – |
| O=C(Nc1nc2ccc(O)cc2s1)c1cccnc1 [Compound 08-44] | 78 | 72 | 99 | 83 | 29 | 109 | 51 | 99 | 83 | 58 | – |
| CC(=O)Nc1nc2cc(C(F)(F)F)ccc2s1 [Compound 03-73] | – | – | – | – | – | – | – | – | – | – | remaining activity at 100 µM [1, 12]: 110%; remaining activity at 100 µM [2, 12]: 96%; remaining activity at 100 µM [3, 12]: 96%; remaining activity at 100 µM [4, 12]: 88%; remaining activity at 100 µM [5, 12]: 91%; remaining activity at 100 µM [6, 12]: 71%; remaining activity at 100 µM [7, 12]: 100%; remaining activity at 100 µM [8, 12]: 128%; remaining activity at 100 µM [9, 12]: 91%; remaining activity at 100 µM [10, 12]: 109% |
| CC(=O)Nc1nc2ccccc2s1 [Compound 03-32] | 105 | 76 | 109 | 77 | 83 | 83 | 104 | 98 | 83 | 86 | – |
| CC(=O)Nc1nc2cc(F)ccc2s1 [Compound 03-77] | – | – | – | – | – | – | – | – | – | – | remaining activity at 100 µM [1, 12]: 103%; remaining activity at 100 µM [2, 12]: 66%; remaining activity at 100 µM [3, 12]: 100%; remaining activity at 100 µM [4, 12]: 80%; remaining activity at 100 µM [5, 12]: 67%; remaining activity at 100 µM [6, 12]: 84%; remaining activity at 100 µM [7, 12]: 99%; remaining activity at 100 µM [8, 12]: 99%; remaining activity at 100 µM [9, 12]: 98%; remaining activity at 100 µM [10, 12]: 86% |
| O=C(Nc1nc2cc(O)ccc2s1)c1cccnc1 [Compound 03-33] | 106 | 92 | 108 | 103 | 29 | 75 | 87 | 103 | 88 | 105 | – |
